pIC50: −log10 of the molar value. Each block holds one compound with its values, some of them ahead of it.
Test system: PAF-induced primary aggregation
Test: PAF-induced primary aggregation in human platelet-rich plasma
Type: cell-based
Details: indomethacin-treated PRP, test compound incubated two minutes at 37° C. before sub-optimal dose of PAF, read-out: IC50, inhibition of PAF-induced primary aggregation in human platelet-rich plasma
Description: PAF-Induced Primary Aggregation in Human Platelet-Rich Plasma
Human venous blood was collected from healthy male donors, who had denied any medication during the previous 14 days. Nine volumes of blood were mixed with one volume of 3.24% trisodium citrate. The citrated blood was centrifuged at 160 g for ten minutes at 22° C. to obtain platelet rich plasma (PRP). The platelets were then counted on a Coulter counter, and the platelet count was adjusted to 200,000 per μl with plasma. The PRP was then treated with indomethacin dissolved in dimethylsulfoxide (10 μg indomethacin per ml PRP). A stock solution of PAF (C16 or C18 β-acetyl-γ-O-alkyl-L-α-phosphatidylcholine; 1 mg/ml) was prepared as a solution in chloroform-methanol (9:1 v/v). A 10 μl portion of the stock solution was evaporated to dryness under nitrogen and dissolved in 0.15M sodium chloride-0.15M Tris.HCl (90:10 v/v) buffer containing 0.25% bovine albumin. Small volumes of the PAF solution (5-15 μl) were added to 0.5 ml samples of indomethacin-treated PRP and the aggregation trace was recorded using an aggregometer. A dose reponse curve was obtained and a sub-optimal dose of PAF was determined for use in inhibition studies.
Indomethacin-treated PRP (0.5 ml) was incubated with a test compound dissolved in buffer (ca. pH 5) or dimethylsulfoxide for two minutes at 37° C. prior to addition of the sub-optimal dose of PAF. The subsequent aggregation trace was recorded and the present inhibition of PAF primary aggregation was determined by comparison with a control PAF-induced aggregation trace. (Due to variability in PAF-induced aggregation within a given PRP sample, a control PAF-induced aggregation was determined every two or three samples.) An inhibition dose-response curve was determined for each test compound and the IC50 value calculated. Table I lists IC50 's for illustrative examples of the compounds of this invention.

SMILES: CCOC(=O)C(C)(C)CCCCn1cnc2cnccc21 [10(B), Ethyl 2,2-dimethyl-6-(1H-imidazo[4,5-c]pyridin-1-yl)hexanoate]
pIC50: 4.82

SMILES: CCOC(=O)CCCCCCn1cnc2cnccc21 [9(B), Ethyl 7-(1H-imidazo[4,5-c]pyridin-1-yl)heptanoate]
pIC50: 4.70

SMILES: CCOC(=O)c1cccc(Cn2cnc3ccncc32)c1 [2(A), Ethyl 3-(3H-imidazo[4,5-c]pyridin-3-ylmethyl)benzoate]
pIC50: 3.78

SMILES: CCOC(=O)c1ccc(Cn2cnc3cnccc32)cc1 [1(B), Ethyl 4-(1H-imidazo[4,5-c]pyridin-1-ylmethyl)benzoate]
pIC50: 4.34

SMILES: CCOC(=O)CCCCn1cnc2ccncc21 [7(A), Ethyl 5-(3H-imidazo[4,5-c]pyridin-3-yl)pentanoate]
pIC50: 3.30

SMILES: c1cc2ncn(CCCCc3nnnn3C3CCCCC3)c2cn1 [12(A), 3-[4-(1-Cyclohexyl-1H-tetrazol-5-yl)butyl]-3H-imidazo[4,5-c]pyridine]
pIC50: 4.25

SMILES: CCOC(=O)CCCCCCn1cnc2ccncc21 [9(A), Ethyl 7-(3H-imidazo[4,5-c]pyridin-3-yl)heptanoate]
pIC50: 4.32

SMILES: CCOC(=O)CCCCn1cnc2cnccc21 [7(B), Ethyl 5-(1H-imidazo[4,5-c]pyridin-1-yl)pentanoate]
pIC50: 3.73

SMILES: CCOC(=O)CCCCCn1cnc2ccncc21 [8(A), Ethyl 6-(3H-imidazo[4,5-c]pyridin-3-yl)hexanoate]
pIC50: 3.99

SMILES: CCOC(=O)c1ccc(Cn2cnc3ccncc32)cc1 [1(A), Ethyl 4-(3H-imidazo[4,5-c]pyridin-3-ylmethyl)benzoate]
pIC50: 3.87

SMILES: CCOC(=O)c1ccc(Cn2cnc3cccnc32)cc1 [14(A), Ethyl 4-(3H-imidazo[4,5-b]pyridin-3-ylmethyl)benzoate]
pIC50: 4.24

SMILES: CCOC(=O)CCCCCn1cnc2cnccc21 [8(B), Ethyl 6-(1H-imidazo[4,5-c]pyridin-1-yl)hexanoate]
pIC50: 4.69

SMILES: CCOC(=O)c1cccc(Cn2cnc3cnccc32)c1 [2(B), Ethyl 3-(1H-imidazo[4,5-c]pyridin-1-ylmethyl)benzoate]
pIC50: 4.10

SMILES: CN(C(=O)CCCCCCn1cnc2ccncc21)C1CCCCC1 [11(A), N-Cyclohexyl-N-Methyl-7-(3H-imidazo[4,5-c]pyridin-3-yl)heptanamide]
pIC50: 3.30

SMILES: CCOC(=O)C(C)(C)CCCCn1cnc2ccncc21 [10(A), Ethyl 2,2-dimethyl-6-(3H-imidazo[4,5-c]pyridin-3-yl)hexanoate]
pIC50: 4.36

SMILES: c1cc2c(cn1)ncn2CCCCc1nnnn1C1CCCCC1 [12(B), 1-[4-(1-Cyclohexyl-1H-tetrazol-5-yl)butyl]-1H-imidazo[4,5-c]pyridine]
pIC50: 5.10

SMILES: CCOC(=O)CCCn1cnc2ccncc21 [6(A), Ethyl 4-(3H-imidazo[4,5-c]pyridin-3-yl)butanoate]
pIC50: 3.85

Results, then the compound that gave them:

pIC50: 4.31
SMILES: O=C(c1ccc(Cn2cnc3cnccc32)cc1)N1CCOCC1 [Example 3, [4-(1H-imidazo[4,5-c]pyridin-1-ylmethyl)phenyl](4-morpholinyl)methanone]

pIC50: 3.93
SMILES: c1cnc2c(c1)ncn2CCCCc1nnnn1C1CCCCC1 [16(A), 3-[4-(1-Cyclohexyl-1H-tetrazol-5-yl)butyl]-3H-imidazo[4,5-b]pyridine]

pIC50: 4.48
SMILES: c1cc2c(cn1)ncn2CCCCCc1nnnn1C1CCCCC1 [Example 13, 1-[5-(1-Cyclohexyl-1H-tetrazol-5-yl)pentyl]-1H-imidazo[4,5-c]pyridine]

pIC50: 4.06
SMILES: O=C(c1ccc(Cn2cnc3ncccc32)cc1)N1CCOCC1 [Example 15, [4-(1H-Imidazo[4,5-b]pyridin-1-ylmethyl)phenyl](4-morpholinyl)methanone]

pIC50: 3.95
SMILES: c1cnc2ncn(CCCCc3nnnn3C3CCCCC3)c2c1 [16(B), 1-[4-(1-Cyclohexyl-1H-tetrazol-5-yl)butyl]-1H-imidazo[4,5-b]pyridine]

pIC50: 5.30
SMILES: CN(C(=O)c1ccc(Cn2cnc3cnccc32)cc1)C1CCCCC1 [Example 5, N-Cyclohexyl-N-methyl-4-(1H-imidazo[4,5-c]pyridin-1-yl-methyl)benzamide]

pIC50: 4.54
SMILES: CCOC(=O)c1ccc(Cn2cnc3ncccc32)cc1 [14(B), Ethyl 4-(1H-imidazo[4,5-b]pyridin-1-ylmethyl)benzoate]

pIC50: 3.67
SMILES: O=C(c1ccc(Cn2cnc3ccncc32)cc1)N1CCOCC1 [Example 4, [4-(3H-imidazo[4,5-c]pyridin-3-ylmethyl)phenyl](4-morpholinyl)methanone]
